Source: the kinase profiling compilation of Christmann-Franck et al. (2016)

How the values were obtained:
Test in all cases: KINOMEscan competition binding
Details in all cases: compound 10.0 µM
MAPK3 (human) = MAPK3 (human) (UniProt P27361)
PRKG1 (human) = PRKG1 (human) (UniProt Q13976)
TAOK3 (human) = TAOK3 (human) (UniProt Q9H2K8)
ULK3 (human) = ULK3 (human) (UniProt Q6PHR2)
EPHA8 (human) = EPHA8 (human) (UniProt P29322)
MAK (human) = MAK (human) (UniProt P20794)
PTK2B (human) = PTK2B (human) (UniProt Q14289)
CLK3 (human) = CLK3 (human) (UniProt P49761)
SRMS (human) = SRMS (human) (UniProt Q9H3Y6)
MAP4K5 (human) = MAP4K5 (human) (UniProt Q9Y4K4)
MAPK15 (human) = MAPK15 (human) (UniProt Q8TD08)
PIP5K1C (human) = PIP5K1C (human) (UniProt O60331)
CIT (human) = CIT (human) (UniProt O14578)
Sequence of CIT (human) (O14578 whole entry, looked up): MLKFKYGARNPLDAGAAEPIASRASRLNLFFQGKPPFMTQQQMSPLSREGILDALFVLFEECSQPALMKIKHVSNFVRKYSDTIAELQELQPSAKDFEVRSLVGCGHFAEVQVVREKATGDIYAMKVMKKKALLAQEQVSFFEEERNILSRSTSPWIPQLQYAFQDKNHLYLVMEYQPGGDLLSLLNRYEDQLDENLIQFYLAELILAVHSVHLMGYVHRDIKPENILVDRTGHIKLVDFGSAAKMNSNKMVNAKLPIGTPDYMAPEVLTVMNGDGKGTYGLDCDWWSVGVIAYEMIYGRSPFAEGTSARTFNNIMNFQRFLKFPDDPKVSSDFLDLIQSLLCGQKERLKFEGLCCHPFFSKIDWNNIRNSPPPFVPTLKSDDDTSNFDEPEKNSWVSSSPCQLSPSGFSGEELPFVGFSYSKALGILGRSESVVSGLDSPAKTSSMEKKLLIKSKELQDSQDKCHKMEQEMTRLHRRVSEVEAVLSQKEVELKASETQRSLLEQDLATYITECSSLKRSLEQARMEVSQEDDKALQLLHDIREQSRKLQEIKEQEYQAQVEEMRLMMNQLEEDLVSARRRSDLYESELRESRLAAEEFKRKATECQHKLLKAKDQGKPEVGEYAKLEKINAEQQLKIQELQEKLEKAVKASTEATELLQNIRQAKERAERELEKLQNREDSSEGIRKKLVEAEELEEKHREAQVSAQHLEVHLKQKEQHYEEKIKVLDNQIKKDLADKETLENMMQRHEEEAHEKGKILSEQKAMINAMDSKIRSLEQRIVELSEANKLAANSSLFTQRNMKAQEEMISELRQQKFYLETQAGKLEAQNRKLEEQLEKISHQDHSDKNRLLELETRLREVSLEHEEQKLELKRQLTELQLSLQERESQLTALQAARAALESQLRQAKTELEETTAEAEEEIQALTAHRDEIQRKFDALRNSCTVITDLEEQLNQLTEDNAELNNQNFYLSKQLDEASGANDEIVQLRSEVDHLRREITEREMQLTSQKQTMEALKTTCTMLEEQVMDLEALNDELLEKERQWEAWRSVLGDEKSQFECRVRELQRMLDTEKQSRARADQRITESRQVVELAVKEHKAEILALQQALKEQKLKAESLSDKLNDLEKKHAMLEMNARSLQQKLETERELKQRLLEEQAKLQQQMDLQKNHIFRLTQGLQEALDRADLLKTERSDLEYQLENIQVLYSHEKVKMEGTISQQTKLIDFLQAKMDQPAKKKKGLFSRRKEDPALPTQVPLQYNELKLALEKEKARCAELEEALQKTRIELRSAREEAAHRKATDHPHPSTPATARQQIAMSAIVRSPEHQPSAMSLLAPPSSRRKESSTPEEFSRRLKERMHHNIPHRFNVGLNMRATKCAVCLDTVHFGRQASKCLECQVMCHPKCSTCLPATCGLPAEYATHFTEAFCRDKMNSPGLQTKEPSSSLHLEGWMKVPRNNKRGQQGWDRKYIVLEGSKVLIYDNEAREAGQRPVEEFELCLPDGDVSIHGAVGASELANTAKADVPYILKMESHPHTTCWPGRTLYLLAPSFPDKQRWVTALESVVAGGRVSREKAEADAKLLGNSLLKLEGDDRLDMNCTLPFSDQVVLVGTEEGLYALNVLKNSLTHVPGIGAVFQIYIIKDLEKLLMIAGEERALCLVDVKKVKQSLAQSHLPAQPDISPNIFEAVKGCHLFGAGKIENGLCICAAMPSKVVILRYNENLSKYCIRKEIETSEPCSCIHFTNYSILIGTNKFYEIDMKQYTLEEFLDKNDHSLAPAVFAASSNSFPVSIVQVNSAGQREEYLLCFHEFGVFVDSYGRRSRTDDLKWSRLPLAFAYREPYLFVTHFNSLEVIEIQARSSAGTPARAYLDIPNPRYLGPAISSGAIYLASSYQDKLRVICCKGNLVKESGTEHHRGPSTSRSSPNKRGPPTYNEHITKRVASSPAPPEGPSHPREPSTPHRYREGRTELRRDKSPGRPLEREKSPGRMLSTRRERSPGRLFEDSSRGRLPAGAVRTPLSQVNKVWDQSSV

MKNK2 (human) = MKNK2 (human) (UniProt Q9HBH9)
SGK110 (human) = SGK110 (human) (UniProt P0C264)
TIE1 (human) = TIE1 (human) (UniProt P35590)
LATS2 (human) = LATS2 (human) (UniProt Q9NRM7)
Sequence of LATS2 (human) (Q9NRM7 whole entry, looked up): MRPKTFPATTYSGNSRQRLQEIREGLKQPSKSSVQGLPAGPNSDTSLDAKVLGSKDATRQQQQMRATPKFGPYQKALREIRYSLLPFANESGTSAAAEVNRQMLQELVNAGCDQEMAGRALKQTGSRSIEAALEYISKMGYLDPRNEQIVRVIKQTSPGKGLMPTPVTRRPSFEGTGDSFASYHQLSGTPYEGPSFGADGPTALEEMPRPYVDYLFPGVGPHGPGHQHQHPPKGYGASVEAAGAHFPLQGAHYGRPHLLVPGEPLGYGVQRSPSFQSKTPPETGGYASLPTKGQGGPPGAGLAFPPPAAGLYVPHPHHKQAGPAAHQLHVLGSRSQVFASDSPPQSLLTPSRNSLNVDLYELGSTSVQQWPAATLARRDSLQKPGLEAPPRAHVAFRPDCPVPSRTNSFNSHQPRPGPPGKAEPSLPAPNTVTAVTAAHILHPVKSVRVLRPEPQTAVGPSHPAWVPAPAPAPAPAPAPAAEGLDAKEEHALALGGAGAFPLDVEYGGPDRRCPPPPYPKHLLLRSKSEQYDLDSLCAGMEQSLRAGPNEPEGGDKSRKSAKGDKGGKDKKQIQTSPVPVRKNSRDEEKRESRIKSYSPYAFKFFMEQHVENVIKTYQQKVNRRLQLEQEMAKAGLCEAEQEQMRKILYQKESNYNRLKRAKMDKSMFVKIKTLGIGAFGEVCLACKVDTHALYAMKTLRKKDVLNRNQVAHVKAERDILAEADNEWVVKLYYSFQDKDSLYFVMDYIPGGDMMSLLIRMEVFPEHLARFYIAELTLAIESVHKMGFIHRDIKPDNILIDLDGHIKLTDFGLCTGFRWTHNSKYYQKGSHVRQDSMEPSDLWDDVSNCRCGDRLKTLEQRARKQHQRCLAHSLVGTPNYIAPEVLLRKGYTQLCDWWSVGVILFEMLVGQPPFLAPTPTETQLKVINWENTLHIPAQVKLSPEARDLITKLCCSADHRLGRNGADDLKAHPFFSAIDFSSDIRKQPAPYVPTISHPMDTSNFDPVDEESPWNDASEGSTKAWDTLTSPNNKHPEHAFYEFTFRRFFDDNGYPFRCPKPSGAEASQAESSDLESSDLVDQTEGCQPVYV

PAK4 (human) = PAK4 (human) (UniProt O96013)
NUAK2 (human) = NUAK2 (human) (UniProt Q9H093)
PAK3 (human) = PAK3 (human) (UniProt O75914)
ULK2 (human) = ULK2 (human) (UniProt Q8IYT8)
AKT2 (human) = AKT2 (human) (UniProt P31751)
TLK2 (human) = TLK2 (human) (UniProt Q86UE8)
MAST1 (human) = MAST1 (human) (UniProt Q9Y2H9)
FLT1 (human) = FLT1 (human) (UniProt P17948)
ADCK3 (human) = ADCK3 (human) (UniProt Q8NI60)
SNRK (human) = SNRK (human) (UniProt Q9NRH2)
PRKCE (human) = PRKCE (human) (UniProt Q02156)
PRPF4B (human) = PRPF4B (human) (UniProt Q13523)
ACVRL1 (human) = ACVRL1 (human) (UniProt P37023)
GRK7 (human) = GRK7 (human) (UniProt Q8WTQ7)
MAP3K15 (human) = MAP3K15 (human) (UniProt Q6ZN16)
PDGFRA (human) = PDGFRA (human) (UniProt P16234)
Sequence of PDGFRA (human) (P16234 whole entry, looked up): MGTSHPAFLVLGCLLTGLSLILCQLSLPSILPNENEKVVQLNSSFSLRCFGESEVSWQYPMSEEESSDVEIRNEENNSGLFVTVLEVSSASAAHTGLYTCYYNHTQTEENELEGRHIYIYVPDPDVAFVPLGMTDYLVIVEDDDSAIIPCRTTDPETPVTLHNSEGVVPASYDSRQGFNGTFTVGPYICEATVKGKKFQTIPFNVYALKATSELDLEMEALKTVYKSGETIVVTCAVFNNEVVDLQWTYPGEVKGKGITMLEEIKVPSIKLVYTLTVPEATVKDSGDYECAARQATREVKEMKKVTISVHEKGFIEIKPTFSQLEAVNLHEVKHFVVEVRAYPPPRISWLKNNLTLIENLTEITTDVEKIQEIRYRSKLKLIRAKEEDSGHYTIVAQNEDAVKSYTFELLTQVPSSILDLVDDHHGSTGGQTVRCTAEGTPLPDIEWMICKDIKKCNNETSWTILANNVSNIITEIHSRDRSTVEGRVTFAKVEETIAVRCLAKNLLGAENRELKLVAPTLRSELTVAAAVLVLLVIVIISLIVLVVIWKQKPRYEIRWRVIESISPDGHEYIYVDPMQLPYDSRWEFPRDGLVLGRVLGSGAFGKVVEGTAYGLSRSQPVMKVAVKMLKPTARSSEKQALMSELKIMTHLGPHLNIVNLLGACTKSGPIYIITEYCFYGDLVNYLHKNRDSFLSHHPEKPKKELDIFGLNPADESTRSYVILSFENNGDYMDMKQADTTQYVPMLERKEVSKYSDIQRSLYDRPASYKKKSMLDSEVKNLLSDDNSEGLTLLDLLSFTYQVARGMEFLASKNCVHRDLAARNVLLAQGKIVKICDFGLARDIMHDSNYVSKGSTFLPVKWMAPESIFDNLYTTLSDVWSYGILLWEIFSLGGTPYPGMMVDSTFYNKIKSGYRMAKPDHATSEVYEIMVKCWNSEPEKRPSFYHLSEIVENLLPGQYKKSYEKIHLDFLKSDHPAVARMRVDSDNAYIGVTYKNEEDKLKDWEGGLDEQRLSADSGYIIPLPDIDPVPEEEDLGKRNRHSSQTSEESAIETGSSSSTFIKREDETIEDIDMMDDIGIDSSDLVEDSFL

BTK (human) = BTK (human) (UniProt Q06187)
CAMK2G (human) = CAMK2G (human) (UniProt Q13555)
PAK7 (human) = PAK7 (human) (UniProt Q9P286)
MAPK12 (human) = MAPK12 (human) (UniProt P53778)
CAMK1G (human) = CAMK1G (human) (UniProt Q96NX5)
PRKD3 (human) = PRKD3 (human) (UniProt O94806)
Sequence of PRKD3 (human) (O94806 whole entry, looked up): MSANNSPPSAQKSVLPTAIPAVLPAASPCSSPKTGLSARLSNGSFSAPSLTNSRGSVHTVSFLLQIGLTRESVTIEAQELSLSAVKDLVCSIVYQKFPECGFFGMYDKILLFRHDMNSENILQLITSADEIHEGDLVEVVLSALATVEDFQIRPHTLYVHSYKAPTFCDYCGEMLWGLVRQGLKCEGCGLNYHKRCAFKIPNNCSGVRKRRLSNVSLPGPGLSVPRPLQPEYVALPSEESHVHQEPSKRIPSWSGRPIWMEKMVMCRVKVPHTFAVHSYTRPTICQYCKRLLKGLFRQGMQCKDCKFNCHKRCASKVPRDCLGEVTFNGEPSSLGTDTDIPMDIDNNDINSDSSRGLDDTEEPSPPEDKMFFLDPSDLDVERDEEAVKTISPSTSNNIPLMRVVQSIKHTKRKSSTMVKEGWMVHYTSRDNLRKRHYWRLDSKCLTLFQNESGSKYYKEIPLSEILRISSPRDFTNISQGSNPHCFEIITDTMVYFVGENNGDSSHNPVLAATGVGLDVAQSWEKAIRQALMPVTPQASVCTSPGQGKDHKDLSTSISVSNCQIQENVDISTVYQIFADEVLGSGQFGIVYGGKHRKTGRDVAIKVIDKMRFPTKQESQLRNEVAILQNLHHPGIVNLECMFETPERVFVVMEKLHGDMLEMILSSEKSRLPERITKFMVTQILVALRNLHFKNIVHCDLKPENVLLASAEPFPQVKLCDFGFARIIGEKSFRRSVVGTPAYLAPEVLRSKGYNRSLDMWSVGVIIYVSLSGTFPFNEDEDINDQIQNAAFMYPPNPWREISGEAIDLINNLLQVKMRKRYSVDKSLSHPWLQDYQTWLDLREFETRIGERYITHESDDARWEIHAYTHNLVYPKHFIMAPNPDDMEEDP

[1] = tested on: FLT3 (human), P36888 [R834Q]
CDKL3 (human) = CDKL3 (human) (UniProt Q8IVW4)

Structure (SMILES): O=c1cc(N2CCOCC2)oc2c(-c3cccc4c3sc3ccccc34)cccc12
- kinase still bound, per cent of control (MAPK3 (human)): 100%
- kinase still bound, per cent of control (PRKG1 (human)): 100%
- kinase still bound, per cent of control (TAOK3 (human)): 97%
- kinase still bound, per cent of control (ULK3 (human)): 64%
- kinase still bound, per cent of control (EPHA8 (human)): 82%
- kinase still bound, per cent of control (MAK (human)): 43%
- kinase still bound, per cent of control (PTK2B (human)): 94%
- kinase still bound, per cent of control (CLK3 (human)): 100%
- kinase still bound, per cent of control (SRMS (human)): 62%
- kinase still bound, per cent of control (MAP4K5 (human)): 89%
- kinase still bound, per cent of control (MAPK15 (human)): 100%
- kinase still bound, per cent of control (PIP5K1C (human)): 61%
- kinase still bound, per cent of control (CIT (human)): 85%
- kinase still bound, per cent of control (MKNK2 (human)): 87%
- kinase still bound, per cent of control (SGK110 (human)): 100%
- kinase still bound, per cent of control (TIE1 (human)): 100%
- kinase still bound, per cent of control (LATS2 (human)): 100%
- kinase still bound, per cent of control (PAK4 (human)): 80%
- kinase still bound, per cent of control (NUAK2 (human)): 100%
- kinase still bound, per cent of control (PAK3 (human)): 100%
- kinase still bound, per cent of control (ULK2 (human)): 98%
- kinase still bound, per cent of control (AKT2 (human)): 51%
- kinase still bound, per cent of control (TLK2 (human)): 80%
- kinase still bound, per cent of control (MAST1 (human)): 100%
- kinase still bound, per cent of control (FLT1 (human)): 97%
- kinase still bound, per cent of control (ADCK3 (human)): 72%
- kinase still bound, per cent of control (SNRK (human)): 73%
- kinase still bound, per cent of control (PRKCE (human)): 100%
- kinase still bound, per cent of control (PRPF4B (human)): 78%
- kinase still bound, per cent of control (ACVRL1 (human)): 94%
- kinase still bound, per cent of control (GRK7 (human)): 92%
- kinase still bound, per cent of control (MAP3K15 (human)): 100%
- kinase still bound, per cent of control (PDGFRA (human)): 100%
- kinase still bound, per cent of control (BTK (human)): 100%
- kinase still bound, per cent of control (CAMK2G (human)): 86%
- kinase still bound, per cent of control (PAK7 (human)): 96%
- kinase still bound, per cent of control (MAPK12 (human)): 99%
- kinase still bound, per cent of control (CAMK1G (human)): 85%
- kinase still bound, per cent of control (PRKD3 (human)): 100%
- kinase still bound, per cent of control [1]: 100%
- kinase still bound, per cent of control (CDKL3 (human)): 100%
